The subject of series [1] is lung cancer PC-9 cells. As to the kind of experiment: In vivo efficacy in mice with subcutaneous lung cancer PC-9 xenograft. The arrangement: species or system mouse. The note with it: 50 mg/kg (0-9 days), 25 mg/kg (10-21 days) oral once a day. How it is done:
1. Cell culture: lung cancer PC-9 cells were cultured in an RPMI 1640 medium containing 10% fetal bovine serum, 100 U/mL penicillin and 100 μg/mL streptomycin through in vitro monolayer culture in an incubator at 37° C./5% CO2. The cells were digested with trypsin-EDTA twice a week for passaging as per conventional practice. At a cell saturation of 80%-90% and a required number, the cells were collected and counted. The cell density was 5×10^6 cells. 2. Cell inoculation: 0.2 mL (containing 5×10^6) of a suspension of PC-9 cells (PBS:Matrigel=1:1) was subcutaneously inoculated in the right back of each mouse, and 64 mice were inoculated in total. On day 7 after inoculation, when mean tumor volume was measured to be 169 mm^3, grouping administration was performed using a randomized stratified grouping method based on tumor volume and mice body weight. PBS is phosphate buffered saline, and Matrigel is matrigel. 3. Administration: the dosage was 50 mg/kg for 0-9 days and 25 mg/kg for 10-21 days; the drug was orally administrated once a day for 3 weeks.
Tumor diameters were measured twice weekly using a vernier caliper. The tumor volume was calculated using the following formula: V=0.5a×b^2, where a and b represent the long diameter and short diameter of the tumor respectively.
The efficacy of compounds against tumor was evaluated by TGI (%).
Relative tumor volume (RTV) was calculated based on the results of tumor measurement. The formula is RTV=Vt/V0, where V0 represents the tumor volume measured at the time point of grouping and administration (i.e., Do), and Vt represents the tumor volume at a certain measurement for the corresponding mouse, the data of TRTV and CRTV should be measured on the same day.
TGI (%) reflects the tumor growth inhibition rate. TGI (%)=[(1−(average tumor volume at the end of administration in a treatment group−average tumor volume at the start of administration of the treatment group))/(average tumor volume at the end of treatment of the solvent control group−average tumor volume at the start of treatment of the solvent control group)]×100%.
Tumor weights will be measured at the end of the experiment and the TGI (%) was calculated.

For series [2], the system named is Ba/F3 (Δ19 del/T790M/C797S). Description: In vivo efficacy in BALB/c nude mice with subcutaneous Ba/F3 (Δ19 del/T790M/C797S) xenograft (CDX). The note with it: for tumor volume inhibition value (TGI): 13 consecutive days. The protocol:
In vivo drug efficacy experiment was performed on xenograft (CDX) BALB/c nude mice subcutaneously implanted with Ba/F3 (Δ19 del/T790M/C797S) source. BALB/c nude mice (female, 6-8 weeks, weighing about 18-22 g) were bred in SPF-rated environments, and each cage was ventilated individually (5 mice per cage). All animals were free to obtain a standard certified commercial laboratory diet. 48 mice in total were purchased from Beijing Vital River Laboratory Animal Technology Co., Ltd for the study. Each mouse was implanted with cells subcutaneously in the right flank for tumor growth. The experiment was started when the mean tumor volume reached about 80-120 mm^3. The test compound was administered orally daily with the compound of formula (I) (5 mg/kg, 15 mg/kg, 45 mg/kg, respectively) administered for 13 consecutive days, and the data are shown in Table 5. Tumor volume was measured twice weekly with a two-dimensional caliper, and the volume was measured in mm^3 and calculated according to the following formula: V=0.5a×b^2, where a and b are the long and short diameters, respectively, of the tumor. Anti-tumor efficacy was determined by dividing the mean tumor increase volume of compound-treated animals by the mean tumor increase volume of untreated animals.

The nature of series [3]: Plasma, tumor and lung exposure in the efficacy-study mice after last administration. The note with it: 15.0 mg/kg/day oral. The class given is in vivo, BALB/c nude mice. How it is done:
On day 14 after administration to the groups for the efficacy experiment, before the last administration and 2 h after the last administration, the plasma of the mice was collected by blood collection from the submandibular vein, and the plasma of the mice was collected at 1 h, 4 h, 8 h, and 24 h after the administration. About 100 μL of blood was collected each time, placed in an anticoagulation tube, and centrifuged at 8000 rpm for 7 min to collect blood plasma, and the blood plasma was preserved at −80° C. Tissues of mouse lung and tumor were collected at the same time 2 h after the administration and stored at −80° C.

The subject of series [4] is L858R/T790M/C797S mutation. Particulars: in combination with an EGFR monoclonal antibody drug such as Cetuximab; cited from earlier work.
The mark [5] stands for this setting: BALB/c nude, mouse, plasma, day 14.

Structures are written as SMILES.

Regarding `COc1cc(N2CCC(N3CCN(C)CC3)CC2)c(C)cc1Nc1ncc(Br)c(Nc2ccc3nccnc3c2P(C)(C)=O)n1` [Compound of formula (I)], the Tumor volume in series [1] (Day 0) is 185 mm^3; in series [1] (Day 2) it was 198 mm^3; in series [1] (Day 6), 92 mm^3; in series [1] (Day 9), 75 mm^3; in series [1] (Day 13) it was 40 mm^3; in series [1] (Day 16), 45 mm^3. Moreover, the Tumor volume in series [1] (Day 20) worked out at 76 mm^3; in series [1] (Day 23), 111 mm^3; in series [2] (5 mg/kg/day oral, Day 0), 84 mm^3; in series [2] (5 mg/kg/day oral, Day 2), 108 mm^3; in series [2] (5 mg/kg/day oral, Day 5), 212 mm^3; in series [2] (5 mg/kg/day oral, Day 8), 395 mm^3. Further, the Tumor volume in series [2] (5 mg/kg/day oral, Day 10) is listed as 505 mm^3; in series [2] (5 mg/kg/day oral, Day 12), 748 mm^3; in series [2] (5 mg/kg/day oral, Day 13), 881 mm^3; in series [2] (15 mg/kg/day oral, Day 0) it was 84 mm^3; in series [2] (15 mg/kg/day oral, Day 2) it was 76 mm^3; in series [2] (15 mg/kg/day oral, Day 5), 107 mm^3. Also, the Tumor volume in series [2] (15 mg/kg/day oral, Day 8) stood at 126 mm^3; in series [2] (15 mg/kg/day oral, Day 10), 176 mm^3; in series [2] (15 mg/kg/day oral, Day 12), 292 mm^3; in series [2] (15 mg/kg/day oral, Day 13), 326 mm^3; in series [2] (45 mg/kg/day oral, Day 0), 84 mm^3; in series [2] (45 mg/kg/day oral, Day 2) it was 56 mm^3. Besides, the Tumor volume in series [2] (45 mg/kg/day oral, Day 5) came out at 32 mm^3; in series [2] (45 mg/kg/day oral, Day 8) it was 35 mm^3; in series [2] (45 mg/kg/day oral, Day 10), 42 mm^3; in series [2] (45 mg/kg/day oral, Day 12), 73 mm^3; in series [2] (45 mg/kg/day oral, Day 13), 68 mm^3. Also, the tumour growth inhibition (TGI) – broadly, the reduction of tumour growth relative to the control group – in series [1] (day 23) was 100%. Also, the “tumor volume inhibition value (TGI)” value in series [2] (15 mg/kg oral daily) was 74.9%; in series [2] (45 mg/kg oral daily) it was 101.69%. Moreover, the “Lung concentration, 2 h” value in series [3] (2 h after last administration) is given as 32533 nmol/kg. Also, in series [3] (2 h after last administration), the “Tumor concentration, 2 h” value worked out at 16667 nmol/kg. Moreover, the concentration at 2 h in series [3] (BALB/c nude, mouse, plasma, 2 h after last administration) is 3.55 µM. In series [3] (setting [5]), the AUC(0-t) (commonly exposure summed from dosing to a finite time, without extrapolation to infinity) came out at 57 µM·h. Moreover, the half-life (as a rule, how long it takes for the measured level to halve) in series [3] (setting [5]) was 10 h.
Turning to `O=C(Nc1nccs1)C(c1cc(F)ccc1O)N1Cc2ccccc2C1=O` (centres unmarked) [EAI045], in series [4], the tumor inhibitory effect result was “good tumor inhibitory effect”.

Source of the values: patent publication US20220119431A1, “SALT OF EGFR INHIBITOR, CRYSTAL FORM, AND PREPARATION METHOD THEREFOR” (priority 2019, published 2022).
